Test results reported in US11542263B2 (NeuroCycle Therapeutics, Inc., priority 2018, dated 2023).
≈ marks a conversion by molar mass, not a printed value. Where two headings read alike, the source gives them in different places.

Key:
Format in all cases: physicochemical
[1] = Solubility in aqueous buffers and simulated fluids, 24 h, HPLC; details: for solubility at 24 h: 22.5 °C, thermodynamic from solid, ~20-25° C., read-out: Measured Conc. (solubility); for solubility at 24 h / Measured Conc. (solubility): ~24 h; for Measured Conc. (solubility): LOQ: 0.1 μg/mL
Procedure: About 2 mg of test article was added to a 1.5 mL vials which contained ˜1.0 mL of one medium listed in Table 7 and Table 8, which was then sealed. The mixtures were stirred at ˜20-25° C. for ˜24 hours. After that, the mixture was filtered by 0.45 μm filter membrane and then the supernatant was analyzed by HPLC.

[2] = Intrinsic dissolution rate in SGF; details: 37° C., 100 rpm, linear scope within 2 to 120 min
Procedure: About 100 mg of Free Base Polymorphic Form A or Phosphate Polymorphic Form A was weighed into the intrinsic dissolution apparatus and the sample compressed for 1 minute with a compression force of ˜4 MPa to form a compacted pellet within the stainless-steel die. All loose powder was removed from the surface of the die. The intrinsic dissolution shaft was connected with the stainless-steel die and tightened so only one surface of the pellet was exposed (surface area=0.496 cm^2). The shaft in the spindle was adjusted to ensure the exposed surface of the compacted tablet was ˜3.8 cm from the bottom of the vessel when lowered. The temperature of chamber water was set at 37° C.±0.5° C., the shaft rotation at 100 rpm and the sampling time points at 2, 5, 10, 15, 30, 45, 60, 120 min. SGF was used as dissolution medium (900 mL). At each time point, solution samples were filtered, and the supernatant was analyzed by HPLC-UV.

[3] = Accelerated stability testing (HPLC assay and purity); details: for Assay (%): assay criterion 95%-105%
Procedure: The stability of Phosphate Polymorphic Form and Free Base Polymorphic Form A were evaluated under accelerated conditions.
Appropriately 2 mg of compounds were accurately weighed into a glass vial, then added diluents (ACN/water, 50/50) and sonicated for 2 minutes to dilute the target concentration of 0.2 mg/mL. The solution was equilibrated to room temperature and then the purity of the compounds was determined by HPLC.

[4] = pKa measurement by pH metric method; details: protonated TPA023B; titrated pH 2 to pH 12, extrapolated to aqueous pKa
Procedure: 10 mg of TPA023B was used for the pKa measurement.
ISA Water (Ionic Strength Adjusted Water, 0.15 M KCl): Accurately weigh 5.591 g KCl into a 500 mL volumetric flask, dissolve the sample with water, add to volume and mix well. Cosolvent of 60% (v/v) DMSO. Dissolve 2.795 g potassium chloride in 100 mL distilled or deionised water and make up to 250 mL with analytical grade DMSO (Ionic strength adjusted DMSO solution).
Cosolvent of 80% (v/v) MeOH: Dissolve 2.795 g potassium chloride in 50 mL distilled or deionized water and make up to 250 mL with analytical grade MeOH (Ionic strength adjusted MeOH solution).
pKa Determination by pH Metric Method (with or without Co-Solvent):
About 1 mg of sample was weighed into a sample vial, about 1.5 mL of ISA water or 1.5 mL of co-solvent (80% MeOH or 60% DMSO) was added into the vial automatically. The sample solution pre-acidified to pH 2.0 with 0.5 M HCl by the instrument automatically, then titrated three times with base to get pKa value from pH 2 to pH 12, and then extrapolated to get aqueous pKa value. Using this method, the pKa of TPA023B was determined to be 2.19.

[5] = Approximate solubility of TPA023B in organic solvents; details: thermodynamic from solid; for solubility at 4 h: 25 °C, RT; for solubility: 50° C.
Procedure: About 25 mg of compound (TPA023B) was added to a 2.0 mL vial containing 0.5 mL of each organic solvent in Table 14, which was then sealed. The mixtures were stirred-mixed at 800 rpm, RT (25° C.) for 4 hours. After that, if the compound was not completely dissolved in the solvent, the mixture was then stirred-mixed at 800 rpm, 50° C. overnight. If the final mixture was clear solution, the solution would be evaporated by vacuum drying oven at 35° C. and the resulted solid would be checked by XRPD. If the final mixture was slurry, the slurry would be centrifuged at 14000 rpm for 5 minutes and then the residues would be dried by vacuum drying oven at 35° C. and checked by XRPD.

[6] = HPLC analysis of degradation of TPA023B with acids in acetone (salt screening)
Procedure: Salt screening via reaction crystallization was preliminarily conducted using five acids in four solvents or solvent mixtures. […] For p-toluenesulfonic acid, about 20 mg of TPA023B and about 1.1 molar equivalents of the corresponding acid were stirred in about 0.5 mL of each solvent. For controls, about 20 mg of TPA023B was stirred in about 0.5 mL of the corresponding solvent. The resulting mixture was heated to about 50° C. with continuous stirring for about 4 hrs and slowly cooled to about 20-25° C. overnight.
HPLC analysis was conducted on the acetone samples to determine the extent of degradation that occurred, if any.

[7] = pH 3.0 citrate buffer (100 mM), initial pH 3.05
[8] = pH 4.5 citrate buffer (100 mM), initial pH 4.44
[9] = pH 7.4 PBS (50 mM), initial pH 7.40
[10] = pH 9.0 USP Buffer (50 mM), initial pH 8.94
[11] = organic solvent or mixture, 1,4-Dioxane
[12] = organic solvent or mixture, THF

`CC(C)(O)c1cnn2c(-c3ccc(F)c(-c4c(F)cccc4C#N)c3)cnc2n1` [Free Base Polymorphic Form A, 2′,6-difluoro-5′-[3-(1-hydroxy-1-methylethyl)-imidazo[1,2-b][1,2,4]triazin-7-yl]biphenyl-2-carbonitrile] showed a solubility at 24 h ([1]; pH 1.8, simulated gastric fluid, SGF, initial pH 1.80) of 0.00138 mg/mL (≈ 0.00353 mM), a solubility at 24 h ([1]; simulated gastric fluid, pH 1.2 Hydrochloric Acid Buffer (50 mM), initial pH 1.17) of 0.00977 mg/mL (≈ 0.025 mM) and a solubility at 24 h ([1]; FaSSIF, initial pH 6.51) of 0.00211 mg/mL (≈ 0.00539 mM). The solubility at 24 h ([1]; FeSSIF, initial pH 5.00) was 0.00963 mg/mL (≈ 0.0246 mM), the solubility at 24 h ([1]; Purified water, initial pH 7.02, target 2 mg/mL) was 0.00014 mg/mL (≈ 0.000358 mM) and the “pH value of supernatant” value ([1]; FaSSIF, initial pH 6.51) was 6.50. For the same compound, the “pH value of supernatant” value ([1]; FeSSIF, initial pH 5.00) was 5.02, the “pH value of supernatant” value ([1]; Purified water, initial pH 7.02) was 8.73 and the “pH value of supernatant” value ([1]; SGF, initial pH 1.80) was 1.86. For the same compound, the “pH value of supernatant” value ([1]; pH 1.2 Hydrochloric Acid Buffer (50 mM), initial pH 1.17) was 1.12, the “pH value of supernatant” value [1, 7] was 3.00 and the “Measured Conc. (solubility)” value [1, 7] was “<LOQ”. The “pH value of supernatant” value [1, 8] was 4.45, the “Measured Conc. (solubility)” value [1, 8] was “<LOQ” and the “pH value of supernatant” value [1, 9] was 7.42. For the same compound, the “Measured Conc. (solubility)” value [1, 9] was “<LOQ”, the “pH value of supernatant” value [1, 10] was 8.98 and the “Measured Conc. (solubility)” value [1, 10] was “<LOQ”. The intrinsic dissolution rate [2] was 5×10^−5 mg cm^2 min-t, the “Purity (%)” value ([3]; 40° C./75% RH (open), 1 week) was 98.64% and the “Assay (%)” value ([3]; 40° C./75% RH (open), 1 week) was 102.35%. The “Purity (%)” value ([3]; 80° C. (open), 1 week) was 98.62%, the “Assay (%)” value ([3]; 80° C. (open), 1 week) was 101.60% and the “Purity (%)” value ([3]; Initial) was 98.72%. The “Assay (%)” value ([3]; Initial) was 105.51%, the “Purity (%)” value ([3]; Light, ~50 h) was 98.60% and the “Assay (%)” value ([3]; Light, ~50 h) was 104.28%.
For `CC(C)(O)c1cnn2c(-c3ccc(F)c(-c4c(F)cccc4C#N)c3)cnc2n1` [TPA023B, 2′,6-difluoro-5′-[3-(1-hydroxy-1-methylethyl)-imidazo[1,2-b][1,2,4]triazin-7-yl]biphenyl-2-carbonitrile], the pKa [4] was about 2.19, the solubility at 4 h [5, 11] was under 50 mg/mL and the solubility at 4 h ([5]; organic solvent or mixture, DMF) was over 50 mg/mL. It also gave a solubility at 4 h ([5]; organic solvent or mixture, DMSO) of over 50 mg/mL, a solubility at 4 h [5, 12] of under 50 mg/mL and a solubility ([5]; aqueous with cosolvent or surfactant or cyclodextrin, Acetone/H2O (1/1, v/v)) of under 50 mg/mL. It also gave a solubility ([5]; aqueous with cosolvent or surfactant or cyclodextrin, EtOH/H2O (1/1, v/v)) of under 50 mg/mL, a solubility [5, 11] of over 50 mg/mL and a solubility ([5]; organic solvent or mixture, Acetone) of under 50 mg/mL. It also gave a solubility ([5]; organic solvent or mixture, Acetonitrile (ACN)) of under 50 mg/mL, a solubility ([5]; organic solvent or mixture, DCM) of under 50 mg/mL and a solubility ([5]; organic solvent or mixture, EtOAc) of under 50 mg/mL. It also gave a solubility ([5]; organic solvent or mixture, Ethanol) of under 50 mg/mL, a solubility ([5]; organic solvent or mixture, Heptane) of under 50 mg/mL and a solubility ([5]; organic solvent or mixture, Isopropanol) of under 50 mg/mL. The solubility ([5]; organic solvent or mixture, MEK) was under 50 mg/mL, the solubility ([5]; organic solvent or mixture, MTBE) was under 50 mg/mL and the solubility ([5]; organic solvent or mixture, Methanol) was under 50 mg/mL. It also gave a solubility [5, 12] of over 50 mg/mL, a solubility ([5]; organic solvent or mixture, Toluene) of under 50 mg/mL and a solubility ([5]; water, H2O) of under 50 mg/mL. For the same compound, the “Purity (%)” value ([6]; control in acetone, 50° C. about 4 hrs) was 99.33%, the “Purity (%)” value ([6]; with H2SO4 in acetone) was 98.33% and the “Purity (%)” value ([6]; with H3PO4 in acetone) was 98.88%. For the same compound, the “Purity (%)” value ([6]; with HCl in acetone) was 98.61%, the “Purity (%)” value ([6]; with methane sulfonic acid in acetone) was 98.71% and the “Purity (%)” value ([6]; with p-toluene sulfonic acid in acetone) was 98.65%.
